Test results taken from ChEMBL document CHEMBL1134660, “Design, synthesis, and evaluation of a long-acting, potent analogue of gonadotropin-releasing hormone” (J Med Chem, 2001).
pIC50: −log10 of the molar value.

Biological target: T1, Gonadotropin-releasing hormone receptor (Rattus norvegicus, UniProt P30969)
T1 sequence (P30969 whole entry): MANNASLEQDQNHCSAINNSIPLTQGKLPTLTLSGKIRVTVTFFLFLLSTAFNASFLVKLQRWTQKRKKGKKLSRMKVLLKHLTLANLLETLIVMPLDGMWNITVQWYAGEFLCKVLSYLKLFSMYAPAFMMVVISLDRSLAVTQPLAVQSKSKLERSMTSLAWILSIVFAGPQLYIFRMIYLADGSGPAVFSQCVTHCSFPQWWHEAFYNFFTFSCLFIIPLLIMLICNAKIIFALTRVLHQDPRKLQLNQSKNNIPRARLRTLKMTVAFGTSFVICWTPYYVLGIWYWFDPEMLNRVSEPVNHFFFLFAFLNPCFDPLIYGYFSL
Assay: Evaluated for gonadotropin-releasing hormone receptor binding by displacing the 50% of the bound tracer [125I][D-Lys6]-GnRH radioligand in rat pituitary receptors

**Q.** With `CC(C)C[C@H](NC(=O)[C@@H](CCCCNC(=O)CCCC(=O)OCc1ccc2c(c1)C(=O)c1ccccc1C2=O)NC(=O)[C@H](Cc1ccc(O)cc1)NC(=O)[C@H](CO)NC(=O)[C@H](Cc1c[nH]c2ccccc12)NC(=O)[C@H](Cc1c[nH]cn1)NC(=O)[C@@H]1CCC(=O)N1)C(=O)N[C@@H](CCCNC(=N)N)C(=O)N1CCC[C@H]1C(=O)NCC(N)=O` as the molecule, how does the pIC50 read?
**A.** 11.70
